Measured values from patent US20240381872A1, “SUBSTITUTED 2,3-DIHYDRO[1,3]THIAZOLO[4,5-B]PYRIDINES, SALTS THEREOF AND THEIR USE AS HERBICIDALLY ACTIVE SUBSTANCES” (BAYER AKTIENGESELLSCHAFT, priority 2021, published 2024).

Tests used:
Assay type in all cases: in vivo
Lolium rigidum (LOLRI) = assay: Herbicidal post-emergence action, section E (Table E6); conditions: application rate 320 g/ha, visual assessment ca. 3 weeks after spraying; for pest or weed control at 320 g/ha: Lolium rigidum, 504 h, read-out: post-emergence activity against LOLRI in %
Source text: (§1) Seeds of mono- and dicotyledonous weed plants and crop plants were sown, in plastic or organic planting pots, in sandy loam, covered with soil and grown in a greenhouse under controlled growth conditions. 2 to 3 weeks after sowing, the test plants were sprayed in the single-leaf stage. The compounds according to the invention, formulated in form of wettable powders (WP) or as emulsifiable concentrates (EC), were sprayed onto the green plant parts as aqueous suspension or emulsion, with the addition of 0.5% of an additive, at an application rate of 600 l of water/ha (converted). The test plants were placed in the greenhouse for ca. 3 weeks under optimum growth conditions, and then the effect of the preparations was assessed visually in comparison with untreated controls (herbicidal effect in percent (%): 100% effect=plants have died off, 0% effect=as control plants).

Avena fatua (AVEFA) = assay: Herbicidal pre-emergence action, section C (Table C4); conditions: 504 h, application rate 320 g/ha, visual grading ca. 3 weeks after treatment vs untreated controls, 100% = plants have died off, 0% = as control plants, read-out: pre-emergence activity against AVEFA
Source text: Seeds of mono- and dicotyledonous weed plants and crop plants were sown, in plastic or organic planting pots, in sandy loam and covered with soil. The compounds according to the invention, formulated in the form of wettable powders (WP) or as emulsifiable concentrates (EC), were applied to the surface of the covering soil as aqueous suspension or emulsion, with the addition of 0.5% of an additive, at an application rate of 600 l of water/ha (converted). Following treatment, the pots were placed in a greenhouse and kept under optimum growth conditions for the test plants. The visual grading of the damage to the test plants was carried out after ca. 3 weeks in comparison to untreated controls (herbicidal effect in percent (%): 100% effect=plants have died off, 0% effect=as control plants).

Brassica napus (BRSNW) = assay: Pre-emergence effects on crop plants, section D (Table D5); conditions: visual grading after ca. 3 weeks
Procedure, shortened: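 Read-out: visual percent injury versus untreated controls at ca. 3 weeks (0% as control, 100% dead). Treatment: aqueous WP/EC suspension or emulsion with 0.5% additive, 600 l/ha, on soil covering seeds in sandy loam, at 320 g/ha or below, under optimum greenhouse conditions.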

Oryza sativa (ORYZA) = assay: Pre-emergence effects on crop plants, section D (Table D3); conditions: visual grading after ca. 3 weeks
Source text: Seeds of mono- and dicotyledonous weed plants and crop plants were sown, in plastic or organic planting pots, in sandy loam and covered with soil. The compounds according to the invention, formulated in the form of wettable powders (WP) or as emulsifiable concentrates (EC), were applied to the surface of the covering soil as aqueous suspension or emulsion, with the addition of 0.5% of an additive, at an application rate of 600 l of water/ha (converted).
Following treatment, the pots were placed in a greenhouse and kept under optimum growth conditions for the test plants. The visual grading of the damage to the test plants was carried out after ca. 3 weeks in comparison to untreated controls (herbicidal effect in percent (%): 100% effect=plants have died off, 0% effect=as control plants).
Tables D1 to D5 below show the effects of various compounds of the general formula (I) according to Table 1 on various crop plants and an application rate corresponding to 320 g/ha or below obtained by the experimental procedure mentioned above in Biological Examples, Section C.

[1] = tested on: Digitaria sanguinalis (DIGSA); assay: Herbicidal post-emergence action, section E (Table E4); conditions: application rate 80 g/ha; assessed visually ca. 3 weeks after treatment vs untreated controls; 100% = plants have died off, 0% = as control plants
Source text: as §1

Viola tricolor (VIOTR) = assay: Herbicidal post-emergence action, section E (Table E10); conditions: application rate 320 g/ha, visual assessment ca. 3 weeks after spraying
Source text: as §1

Fc1ccccc1-c1nc2c(cc1Br)SCN2 [Example I-001, 6-bromo-5-(2-fluorophenyl)-2,3-dihydro[1,3]thiazolo[4,5-b]pyridine]
pest or weed control at 320 g/ha (Lolium rigidum (LOLRI)): 90%
pest or weed control at 320 g/ha (Avena fatua (AVEFA)): 80%
pre-emergence activity against BRSNW in % (crop plant damage) (Brassica napus (BRSNW); application rate 320 g/ha): 20%
pre-emergence activity against ORYZA in % (crop plant damage) (Oryza sativa (ORYZA); application rate 80 g/ha): 20%

COC(=O)CCC(=O)N1CSc2cc(Cl)c(-c3ccccc3F)nc21 [Example I-003]
pre-emergence activity against BRSNW in % (crop plant damage) (Brassica napus (BRSNW); application rate 80 g/ha): 20%

Cc1cc2c(nc1-c1ccccc1F)NCS2 [Example I-007, 5-(2-fluorophenyl)-6-methyl-2,3-dihydro[1,3]thiazolo[4,5-b]pyridine]
post-emergence activity against DIGSA [1]: 90%
pest or weed control at 320 g/ha (Avena fatua (AVEFA)): 80%

Clc1ccccc1-c1nc2c(cc1Br)SCN2 [Example I-041, 6-bromo-5-(2-chlorophenyl)-2,3-dihydro[1,3]thiazolo[4,5-b]pyridine]
pre-emergence activity against ORYZA in % (crop plant damage) (Oryza sativa (ORYZA); application rate 320 g/ha): 20%

CC(=O)N1CSc2cc(Br)c(-c3ccccc3Cl)nc21 [Example I-055, 1-[6-bromo-5-(2-chlorophenyl)[1,3]thiazolo[4,5-b]pyridin-3(2H)-yl]ethanone]
pre-emergence activity against BRSNW in % (crop plant damage) (Brassica napus (BRSNW); application rate 80 g/ha): 20%
pre-emergence activity against ORYZA in % (crop plant damage) (Oryza sativa (ORYZA); application rate 320 g/ha): 20%

CCS(=O)(=O)N1CSc2cc(C)c(-c3ccccc3F)nc21 [Example I-060, 3-(ethylsulfonyl)-5-(2-fluorophenyl)-6-methyl-2,3-dihydro[1,3]thiazolo[4,5-b]pyridine]
pest or weed control at 320 g/ha (Avena fatua (AVEFA)): 90%

CC(C)C(=O)N1C[S+]([O-])c2cc(Br)c(-c3ccccc3)nc21 (stereo not drawn) [Example I-067]
pre-emergence activity against ORYZA in % (crop plant damage) (Oryza sativa (ORYZA); application rate 80 g/ha): 20%

Cc1cc2c(nc1-c1ccccc1F)N(C(=O)C1(C)CC(Cl)=NO1)CS2 (stereo not drawn) [Example I-083]
pre-emergence activity against ORYZA in % (crop plant damage) (Oryza sativa (ORYZA); application rate 80 g/ha): 20%

Cc1cc2c(nc1-c1ccccc1)N(C(=O)C1(C)CC(Cl)=NO1)CS2 (stereo not drawn) [Example I-088]
post-emergence activity against VIOTR in % (Viola tricolor (VIOTR)): 80%

Cc1cc2c(nc1-c1ccccc1F)N(C(=O)C13CCCC1C(Cl)=NO3)CS2 (stereo not drawn) [Example I-104]
post-emergence activity against VIOTR in % (Viola tricolor (VIOTR)): 80%

CCOCCS(=O)(=O)N1C[S+]([O-])c2cc(C)c(-c3ccccc3F)nc21 (stereo not drawn) [Example I-127]
pest or weed control at 320 g/ha (Lolium rigidum (LOLRI)): 80%

COCC1(C(=O)N2CSc3cc(C)c(-c4ccccc4F)nc32)CC(Cl)=NO1 (stereo not drawn) [Example I-128]
post-emergence activity against LOLRI in % (Lolium rigidum (LOLRI)): 80%

CC1(C(=O)N2CSc3cc(Br)c(-c4ccccc4Cl)nc32)CC(Cl)=NO1 (stereo not drawn) [Example I-141, [6-bromo-5-(2-chlorophenyl)[1,3]thiazolo[4,5-b]pyridin-3(2H)-yl](3-chloro-5-methyl-4,5-dihydro-1,2-oxazol-5-yl)methanone]
pre-emergence activity against BRSNW in % (crop plant damage) (Brassica napus (BRSNW); application rate 80 g/ha): 20%
